Entries after “also recorded” stand apart in the source; their conditions may differ.
Test system: seizures associated with congenital disorder of glycosylation 1P (tonic and myoclonic seizures)
Test: Open label, expanded-access program of botanically derived purified CBD: seizure frequency in a patient with congenital disorder of glycosylation 1P
Assay type: in vivo, human
Conditions: for Seizure frequency, Tonic: baseline 448.0; for Seizure frequency, Myoclonic: baseline 700.0
Description: The subject was required to be on one or more AEDs at stable doses for a minimum of two weeks prior to baseline and to have stable vagus nerve stimulation (VNS) settings and ketogenic diet ratios for a minimum of four weeks prior to baseline.
Dose was then increased weekly by 5 mg/kg/day to a goal of 25 mg/kg/day.
A maximum dose of 50 mg/kg/day could be utilised for the patient if they were tolerating the medication but had not achieved seizure control; the patient had further weekly titration by 5 mg/kg/day.
Modifications were made to concomitant AEDs as per clinical indication.
Seizure frequency, intensity, and duration were recorded by caregivers in a diary during a baseline period of at least 28 days. Changes in seizure frequency relative to baseline were calculated after at least 2 weeks and at defined timepoints of treatment.
Patients may be defined as responders if they had more than 50% reduction in seizure frequency compared to baseline. The percent change in seizure frequency was calculated as follows: […]
The percent change of seizure frequency may be calculated for any time interval where seizure number has been recorded. For the purpose of this example the percent change of seizure frequency for the end of the treatment period was calculated as follows: […]

[1] = Patient 1, 2 weeks, dose CBD 9.1 mg/kg/day
[2] = Patient 1, 4 weeks, dose CBD 18.2 mg/kg/day
[3] = Patient 1, 8 weeks, dose CBD 26.3 mg/kg/day
[4] = Patient 1, 12 weeks, dose CBD 19.0 mg/kg/day
[5] = Patient 1, 16 weeks, dose CBD 13.3 mg/kg/day
[6] = Patient 1, treated for 132 weeks, relative to baseline

## C=C(C)[C@@H]1CCC(C)=C[C@H]1c1c(O)cc(CCCCC)cc1O [CBD, cannabidiol]
[1]
  Seizure frequency, Tonic: 328.0
  Seizure frequency, Myoclonic: 384.0
[2]
  Seizure frequency, Tonic: 231.2
  Seizure frequency, Myoclonic: 424.8
[3]
  Seizure frequency, Tonic: 52.0
  Seizure frequency, Myoclonic: 608.0
[4]
  Seizure frequency, Tonic: 22.8
  Seizure frequency, Myoclonic: 986.0
[5]
  Seizure frequency, Tonic: 20.0
  Seizure frequency, Myoclonic: 1251.2
[6]
  reduction in myoclonic seizures over the treatment period: 72.1%
  reduction in tonic seizures over the treatment period: 57.2%
Patient with congenital disorder of glycosylation 1P
  effect on frequency/number of tonic and myoclonic seizures (in words): effective in reducing the frequency of tonic and myoclonic seizures; also recorded: significantly reduce the number of seizures; also recorded: significant reduction in tonic and myoclonic seizures
